Laboratory results reported in publication PMC3836617 (Pharmaceutics, 2013).
Several values for one entry are separate records, joined by “and”; a condition that tells them apart may be missing. Identical values can stand only once. Like-named read-outs stand apart in the source and are kept apart here.

What was measured:
[1] = for Permeated amount after 12 h: labelled species found in receptor fluid
Protocol: (§3) Fresh excised abdominal skin was used for these experiments. To strip skin, stratum corneum was removed by 20 successive strippings using cellophane adhesive tape (Nichiban K.K., Japan) according to conventional methods. The excised skin was mounted between half-cells with the dermal side in contact with receptor fluid (pH 6.8 phosphate-buffered saline (PBS) with 3% BSA). Receptor fluid flow rate was 5 mL/h. Two milliliters of drug suspension (drug amount = twice the amount required for saturation) in pH 4.0 acetate buffer was added to the donor chamber.
(§4) The in vitro permeation parameters were calculated from the penetration data using the following equations: Js = (KmDC)/δ = KpC and τ = δ^2/6D, where Js is steady state flux, Km is the solvent membrane partition coefficient of drug, D is diffusion coefficient, C is drug concentration in donor chamber, δ is thickness of rat skin, Kp is the permeability coefficient of drug, and τ represents lag time.

[2] = for Permeated amount after 12 h: full-thickness skin preincubated with 2 mM BNPP 1 h
Protocol: as §3
In an inhibition study for CES, skin mounted between the half-cells was preincubated with the dermal side in contact with 2 mM BNPP (dissolved in pH 6.8 PBS containing 3% BSA) for 1 h.
as §4

[3] = Nonenzymatic hydrolysis of caproyl-PL to PL in buffer; format: physicochemical
Protocol: Hydrolysis was greater under basic buffer conditions […]. […] The hydrolysis of caproyl-PL was <0.05% during the sampling period (1 h) at pH 6.8 in PBS containing 3% BSA.

[4] = cited from earlier work
[5] = Hydrolysis in rat skin S9 fraction; format: in vitro ADME; details: for Hydrolysis in skin S9 relative to liver microsomes (slower) / Vmax in skin S9 relative to liver microsomes (smaller) / Vmax/Km in skin S9 relative to liver microsomes (smaller): skin S9 vs liver microsomes
Protocol: After hair was carefully clipped and shaved, rats were sacrificed by exsanguination under ether anesthesia. Abdominal and dorsal skin was removed using a scalpel and dissection scissors. A few pieces of skin were stored in liquid nitrogen for extraction of total RNA. The skin was minced, mixed with five volumes of ice-cold 4-(2-hydroxyethyl)-1-piperazineethanesulfonic acid (HEPES) buffer (50 mM, pH 7.4) containing 0.15 M KCl, and homogenized using a Polytron (Kinematica, Lucerne, Switzerland) on ice. Whole homogenate was filtered through a funnel containing buffer-soaked cotton wool. After centrifugation of the skin homogenate at 9000g for 20 min at 4 °C, the supernatant fraction (S9) was obtained. Protein content was determined by the method described by Bradford using bovine serum albumin (BSA) as standard. The skin S9 was stored at −80 °C until use.
(§1) Hydrolysis of PNPA, PNPB, and caproyl-PL were performed in S9 and microsomal fractions of rat liver, testis, kidney and skin. Tissue samples were diluted with 50 mM HEPES (pH 7.4) buffer at appropriate protein concentrations and preincubated for 5 min at 37 °C. The hydrolysis reaction was initiated by the addition of test compounds dissolved in dimethyl sulfoxide (DMSO). The final concentration of DMSO was less than 0.5%, which has no effect on hydrolytic activity. The rate of hydrolysis of PNPA and PNPB (final concentrations 15–500 μM) was determined by the initial linear increase in absorbance of p-nitrophenol at 405 nm (V-530, JASCO Co., Tokyo, Japan).
For the hydrolysis of caproyl-PL, the reaction was terminated by addition of 5 mL ethylacetate. After extraction of PL, as previously described, stereoselective determination was carried out using high-performance liquid chromatography (HPLC).

esterases of rat skin S9 = experiment: Native PAGE esterase activity staining of rat skin S9 with 1-naphthylacetate; format: biochemical; details: native PAGE stained with 1-naphthylacetate
Protocol: Polyacrylamide gel electrophoresis (PAGE) was performed as described by Mentlein et al. [15]. Polyacrylamide gels (7.5% w/w), containing 1% (w/v) nonidet P-40 for solubilization of proteins, were used for the separation of native enzymes. After electrophoresis of tissue samples (10–40 μg protein), the gels were stained for esterase activity with 1-naphthylacetate through coupling to liberated 1-naphthol with Fast Red TR-salt.
All proteins with hydrolytic activity can be visualized by this technique. […] In order to compare skin esterase with tissue-specific CES isozymes, the microsomal fraction of each rat organ was applied to a native PAGE gel.

[6] = Hydrolysis in rat liver microsomes; format: in vitro ADME; details: pH 7.4; for Vmax: liver microsomes; for Km: liver microsomes 20 μg/mL for PNPA, 10 μg/mL for PNPB
Protocol: (§2) The excised liver, kidney, and testis were washed with ice-cold 0.15 M KCl, and finely minced using scissors. Minced tissues were homogenized with 3 volumes of 50 mM HEPES buffer (pH 7.4) containing 0.15 M KCl in a Potter–Elvehjem glass homogenizer equipped with a Teflon pestle under ice-cold conditions. Homogenates (25% wet w/v) were centrifuged at 9000g for 20 min at 4 °C, to give the S9 fraction. S9 fraction was further centrifuged at 100,000g for 1 h at 4 °C. The resulting pellets were resuspended in 50 mM HEPES buffer (pH 7.4) containing 0.15 M KCl to prepare the microsomal fraction. Protein concentrations were determined by the method of Bradford using BSA as standard. S9 and the microsomal fraction were stored at −80 °C until use.
as §1

[7] = Hydrolysis in rat kidney microsomes; format: in vitro ADME; details: pH 7.4; for Vmax: kidney microsomes; for Km: kidney microsomes 10 μg/mL
Protocol: as §2, §1

[8] = Hydrolysis in rat testis microsomes; format: in vitro ADME; details: pH 7.4; for Km: testis microsomes 10 μg/mL for PNPA, 5 μg/mL for PNPB; for Vmax: testis microsomes
Protocol: as §2, §1

[9] = after application of caproyl-PL, full-thickness skin, n = 6
[10] = after application of caproyl-PL, labelled species, full-thickness skin
[11] = after application of caproyl-PL, total of caproyl-PL and PL, full-thickness skin
[12] = caproyl-PL applied to full-thickness skin
[13] = after application of caproyl-PL, labelled species
[14] = after application of caproyl-PL, labelled species, full-thickness skin with BNPP
[15] = after application of caproyl-PL, total, full-thickness skin with BNPP
[16] = after application of caproyl-PL, labelled species, stripped skin
[17] = after application of caproyl-PL, total, stripped skin
[18] = after application of PL, full-thickness skin
[19] = after application of PL, full-thickness skin with BNPP
[20] = after application of PL, stripped skin
[21] = hydrolysis, skin S9 300 μg/mL, 50 mM HEPES pH 7.4

CCCCCC(=O)OC(CNC(C)C)COc1cccc2ccccc12.Cl (stereo not drawn) [Caproyl-PL, O-caproyl-PL hydrochloride]
Skin concentration of caproyl-PL relative to PL (higher) ([1]; 12 h after dosing caproyl-PL, full-thickness skin): 3.5 fold | Permeated amount after 12 h [1, 9]: 1.7 ± 1.4 nmol | Lag time [1, 10]: 7.0 ± 0.78 h | Skin concentration at 12 h [1, 10]: 1,900 ± 630 nmol/g tissue | Steady state flux [1, 10]: 0.40 ± 0.28 nmol/h | Skin concentration at 12 h ([1]; after application of caproyl-PL, labelled species, full-thickness skin, listed as caproyl-PL): 1900 ± 630 nmol/g tissue | Lag time, Total [1, 11]: 4.9 h and 4.9 ± 1.1 h | Permeated amount after 12 h, Total [1, 11]: 140 ± 33 nmol | Skin concentration at 12 h, Total [1, 11]: 2,400 ± 780 nmol/g tissue | Steady state flux, Total [1, 11]: 20 ± 6.1 nmol/h | Predicted concentration of caproyl-PL in viable epidermis and dermis ([1]; after application to full-thickness skin, estimated from flux and permeation clearance): about 500 nmol/g tissue | Dose retained in the stratum corneum [1, 12]: 75% | Dose transferred into viable skin [1, 12]: 25% | Predicted concentration in viable epidermis and dermis relative to Km value (higher) ([1]; full-thickness skin): 25 fold | Permeated amount after 12 h [2, 13]: 3.9 ± 3.4 nmol | Lag time [2, 14]: 8.3 ± 1.2 h | Skin concentration at 12 h [2, 14]: 2,100 ± 220 nmol/g tissue | Steady state flux [2, 14]: 0.83 ± 0.65 nmol/h | Lag time, Total [2, 15]: 6.4 ± 0.92 h | Permeated amount after 12 h, Total [2, 15]: 25 ± 21 nmol | Skin concentration at 12 h, Total [2, 15]: 2,200 ± 230 nmol/g tissue | Steady state flux, Total [2, 15]: 4.1 ± 3.1 nmol/h | Permeated amount, steady state flux and Kp value of intact caproyl-PL, increase by treatment with BNPP ([2]; full-thickness skin with vs without BNPP): 2 fold | Nonenzymatic hydrolysis of caproyl-PL to PL ([3]; in 12 h, pH 4.0 acetate buffer): < 0.1% | Nonenzymatic hydrolysis of caproyl-PL ([3]; sampling period 1 h, pH 6.8 PBS containing 3% BSA): < 0.05% | log PC ([4]; between 1-octanol and pH 4.0 phosphate buffer, method and reference not given): 2.3 | pKa ([4]; stated in discussion, method and reference not given): 9.1 | Constant concentration in donor compartment (suspension) ([4]; suspension in pH 4.0 acetate buffer): 6.4 mM | Steady-state flux and Kp values of intact caproyl-PL in stripped skin relative to full-thickness skin (greater) (after application of caproyl-PL): 6 fold | Lag time [16]: 4.7 ± 1.7 h | Permeated amount after 12 h [16]: 12 ± 13 nmol | Skin concentration at 12 h [16]: 3,200 ± 580 nmol/g tissue | Steady state flux [16]: 2.4 ± 0.98 nmol/h | Skin concentration at 12 h (after application of caproyl-PL, labelled species, stripped skin, listed as caproyl-PL): 3200 ± 580 nmol/g tissue | Permeated amount after 12 h, Total (after application of caproyl-PL, total of caproyl-PL and PL, stripped skin): 200 ± 50 nmol | Lag time, Total [17]: 3.6 ± 0.43 h | Skin concentration at 12 h, Total [17]: 4,100 ± 600 nmol/g tissue | Steady state flux, Total [17]: 23 ± 5.5 nmol/h | Permeation clearance from viable skin to receptor fluid (calculated from steady-state flux and cutaneous concentration in stripped skin): 0.75 mg tissue/h | Concentration of caproyl-PL in stripped skin relative to Km value (higher) (vs Km in skin S9): 160 fold | Vmax ([5]; hydrolysis of caproyl-PL in rat skin S9): 9.24 ± 2.95 nmol/min/mg S9 protein | Km ([5]; hydrolysis of caproyl-PL in rat skin S9, read-out: Km value): 19.7 ± 5.36 µM | Hydrolysis in skin S9 relative to liver microsomes (slower) [5]: 20 fold

O=[N+]([O-])c1ccc(OP(=O)(O)Oc2ccc([N+](=O)[O-])cc2)cc1 [BNPP, bis-p-nitrophenyl phosphate]
PL conversion from caproyl-PL after treatment with BNPP ([2]; 2 mM BNPP on receiver side for 1 h, full-thickness skin): markedly decreased

CCN(CC)C(C)CN1c2ccccc2Sc2ccccc21 (stereo not drawn) [ethopropazine]
Inhibition of formation of esterase bands of skin S9 (esterases of rat skin S9): not inhibited

CC(C)NCC(O)COc1cccc2ccccc12 (stereo not drawn) [PL, propranolol]
Lag time [1, 18]: 1.5 ± 0.56 h | Skin concentration at 12 h [1, 18]: 9,400 ± 380 nmol/g tissue | Steady state flux [1, 18]: 240 ± 94 nmol/h | Amount permeated after 12 h ([1]; after application of PL, full-thickness skin, n = 6): 2,600 ± 970 nmol | Permeated amount after 12 h [1, 9]: 140 ± 35 nmol | Lag time [1, 10]: 4.9 ± 1.1 h | Skin concentration at 12 h [1, 10]: 550 ± 120 nmol/g tissue | Steady state flux [1, 10]: 20 ± 6.2 nmol/h | Amount permeated after 12 h [2, 19]: 2,600 ± 990 nmol | Lag time [2, 19]: 0.84 ± 0.24 h | Skin concentration at 12 h [2, 19]: 9,900 ± 590 nmol/g tissue | Steady state flux [2, 19]: 240 ± 87 nmol/h | Permeated amount after 12 h [2, 13]: 21 ± 18 nmol | Lag time [2, 14]: 6.3 ± 0.93 h | Skin concentration at 12 h [2, 14]: 130 ± 7.7 nmol/g tissue | Steady state flux [2, 14]: 3.5 ± 2.6 nmol/h | Amount permeated after 12 h [20]: 17,000 ± 3,600 nmol | Lag time [20]: 1.4 ± 0.36 h | Skin concentration at 12 h [20]: 6,900 ± 3,700 nmol/g tissue | Lag time [16]: 3.6 ± 0.38 h | Permeated amount after 12 h [16]: 190 ± 55 nmol | Skin concentration at 12 h [16]: 870 ± 44 nmol/g tissue | Steady state flux [16]: 22 ± 6.4 nmol/h

CC(=O)Oc1ccc([N+](=O)[O-])cc1 [PNPA, p-nitrophenylacetate]
Vmax [6]: 3,570 ± 810 nmol/min/mg protein | Km ([6]; rat): 57 ± 18.2 µM | Vmax [7]: 2,432 ± 497 nmol/min/mg protein | Km ([7]; rat): 268 ± 83.8 µM | Km ([8]; male, rat): 34.6 ± 1.27 µM | Vmax [8]: 1,606 ± 333 nmol/min/mg protein | Vmax [5, 21]: 188 ± 30.3 nmol/min/mg protein | Km ([5]; rat, skin S9 fraction, hydrolysis, skin S9 300 μg/mL, 50 mM HEPES pH 7.4, 37 °C, mean ± S.D. (n = 3/4), read-out: Km): 55.5 ± 8.18 µM | Hydrolysis in skin S9 relative to liver microsomes (slower) [5]: around 20 fold | Vmax in skin S9 relative to liver microsomes (smaller) [5]: 19 fold | Vmax/Km in skin S9 relative to liver microsomes (smaller) [5]: 21 fold

CCCC(=O)Oc1ccc([N+](=O)[O-])cc1 [PNPB, p-nitrophenylbutyrate]
Km [6]: 37.1 ± 9.42 µM | Vmax [6]: 4,220 ± 521 nmol/min/mg protein | Km [7]: 97 ± 16.6 µM | Vmax [7]: 994 ± 286 nmol/min/mg protein | Km [8]: 63.4 ± 13.9 µM | Vmax [8]: 2,978 ± 398 nmol/min/mg protein | Vmax [5, 21]: 460 ± 127 nmol/min/mg protein | Km ([5]; hydrolysis, skin S9 300 μg/mL, 50 mM HEPES pH 7.4, 37 °C, mean ± S.D. (n = 3/4), read-out: Km): 97.1 ± 30.2 µM | Hydrolysis in skin S9 relative to liver microsomes (slower) [5]: around 20 fold | Vmax in skin S9 relative to liver microsomes (smaller) [5]: 9 fold | Vmax/Km in skin S9 relative to liver microsomes (smaller) [5]: 24 fold
